# Values of other authors in patent US8415392B2, “Combined use of L-carnitine, acetyle L-carnitine and propionyl L-carnitine for the treatment of oligoasthenoteratospermia” (Sigma-Tau Industrie Farmaceutiche Riunite, S.p.A., priority 2002, dated 2013).
# Experiments:
# [1] = system: patients with idiopathic oligoastheno-spermia; settings: acetyl L-carnitine
# [2] = system: patients with idiopathic asthenospermia; settings: L-carnitine administration
# [3] = Fertilität 4.1-4, 1988, L-carnitine therapy
Structure (SMILES),sperm density [1],sperm motility [1],patients in whom sperm motility improved and sperm count increased [2],"sperm motility (infertile patients; Andrologia 26:155-159, 1994, quantitative and qualitative)",carnitine levels in the spermatozoa (infertile patients; [3]),sperm motility and sperm count (infertile patients; [3]),"sperm quality (infertile patients; Loumbakis et al. 1996, preliminary data)"
CC(=O)O[C@H](CC(=O)[O-])C[N+](C)(C)C [acetyl L-carnitine],no effect,progressive increase,,,,,
C[N+](C)(C)C[C@H](O)CC(=O)[O-] [L-carnitine],,,37 out of 47,significant improvement,increase,increase,may have a positive effect
